In the NIST ThermoML archive (doi:10.1016/j.jct.2013.01.006):

Settings: Liquid, Vibrating tube method

F/C=C/C(F)(F)F [trans-1,3,3,3-tetrafluoropropene]
Settings	mass density [kg/m3]
283.55 K, 99990 kPa	1403.02
283.56 K, 30000 kPa	1295.8
283.56 K, 40000 kPa	1316.15
283.56 K, 50000 kPa	1334.15
283.56 K, 60000 kPa	1350.35
283.56 K, 69990 kPa	1365.2
283.56 K, 79990 kPa	1378.71
283.56 K, 90000 kPa	1391.26
283.57 K, 1000 kPa	1211.68
283.57 K, 3000 kPa	1219.58
283.57 K, 5000 kPa	1227.04
283.57 K, 10000 kPa	1243.89
283.57 K, 15000 kPa	1258.79
283.57 K, 20000 kPa	1272.23
283.57 K, 25000 kPa	1284.48
293.41 K, 1000 kPa	1180.6
293.41 K, 3000 kPa	1189.81
293.41 K, 5000 kPa	1198.39
293.41 K, 10000 kPa	1217.4
293.41 K, 15000 kPa	1234.07
293.41 K, 20000 kPa	1248.82
293.41 K, 25000 kPa	1262.23
293.41 K, 30000 kPa	1274.5
293.41 K, 40000 kPa	1296.38
293.41 K, 50000 kPa	1315.5
293.41 K, 60000 kPa	1332.69
293.41 K, 69990 kPa	1348.45
293.41 K, 79990 kPa	1362.63
293.41 K, 100010 kPa	1387.95
293.42 K, 90000 kPa	1375.74
303.38 K, 1000 kPa	1149.74
303.38 K, 3000 kPa	1160.58
303.39 K, 5000 kPa	1170.47
303.39 K, 10000 kPa	1192.27
303.39 K, 15000 kPa	1210.87
303.39 K, 20000 kPa	1227.2
303.39 K, 25000 kPa	1241.85
303.39 K, 30000 kPa	1255.15
303.39 K, 40000 kPa	1278.68
303.39 K, 60000 kPa	1317.3
303.4 K, 50000 kPa	1299.13
303.4 K, 70000 kPa	1333.74
303.4 K, 80010 kPa	1348.59
303.4 K, 90000 kPa	1362.33
303.4 K, 100000 kPa	1375.04
313.33 K, 1000 kPa	1112.39
313.33 K, 3000 kPa	1125.51
313.34 K, 5000 kPa	1137.25
313.34 K, 10000 kPa	1162.32
313.35 K, 15000 kPa	1183.22
313.35 K, 20000 kPa	1201.24
313.35 K, 25000 kPa	1217.24
313.36 K, 30000 kPa	1231.65
313.36 K, 40000 kPa	1256.89
313.36 K, 80000 kPa	1330.76
313.36 K, 90000 kPa	1345.06
313.36 K, 99990 kPa	1358.3
313.37 K, 50000 kPa	1278.66
313.37 K, 60000 kPa	1297.92
313.37 K, 69990 kPa	1315.13
323.14 K, 1000 kPa	1074.03
323.15 K, 3000 kPa	1090.3
323.15 K, 5000 kPa	1104.41
323.15 K, 10000 kPa	1133.63
323.15 K, 15000 kPa	1157.19
323.15 K, 20000 kPa	1177.23
323.15 K, 25000 kPa	1194.71
323.15 K, 30000 kPa	1210.33
323.15 K, 40000 kPa	1237.43
323.15 K, 50000 kPa	1260.55
323.15 K, 60000 kPa	1280.78
323.15 K, 69990 kPa	1299.16
323.15 K, 80000 kPa	1315.46
323.15 K, 90000 kPa	1330.39
323.15 K, 100000 kPa	1344.16
333.06 K, 3000 kPa	1051.57
333.06 K, 5000 kPa	1068.99
333.07 K, 10000 kPa	1103.45
333.07 K, 15000 kPa	1130.26
333.07 K, 20000 kPa	1152.47
333.07 K, 25000 kPa	1171.67
333.08 K, 30000 kPa	1188.58
333.08 K, 40000 kPa	1217.68
333.08 K, 50000 kPa	1242.22
333.09 K, 60000 kPa	1263.59
333.09 K, 70000 kPa	1282.87
333.1 K, 79990 kPa	1299.88
333.1 K, 89990 kPa	1315.41
333.1 K, 99990 kPa	1329.71
343.06 K, 3000 kPa	1007.98
343.07 K, 5000 kPa	1030.29
343.07 K, 10000 kPa	1071.6
343.07 K, 15000 kPa	1102.25
343.07 K, 20000 kPa	1127.03
343.07 K, 25000 kPa	1148.05
343.07 K, 30000 kPa	1166.47
343.07 K, 40000 kPa	1197.69
343.07 K, 50000 kPa	1223.79
343.07 K, 60000 kPa	1246.3
343.07 K, 70000 kPa	1266.4
343.08 K, 79990 kPa	1284.18
343.08 K, 90000 kPa	1300.35
343.08 K, 100000 kPa	1315.2
352.97 K, 3000 kPa	957.49
352.97 K, 60000 kPa	1229.3
352.97 K, 70000 kPa	1250.62
352.97 K, 79990 kPa	1269.19
352.97 K, 89990 kPa	1285.98
352.97 K, 99990 kPa	1301.43
352.98 K, 5000 kPa	987.78
352.98 K, 15000 kPa	1073.64
352.98 K, 20000 kPa	1101.36
352.98 K, 25000 kPa	1124.45
352.98 K, 30000 kPa	1144.41
352.98 K, 40000 kPa	1177.85
352.98 K, 50000 kPa	1205.56
352.99 K, 10000 kPa	1038.43
362.93 K, 3000 kPa	894.35
362.93 K, 5000 kPa	939.3
362.94 K, 10000 kPa	1003.24
362.94 K, 15000 kPa	1044.15
362.94 K, 20000 kPa	1075.24
362.94 K, 25000 kPa	1100.62
362.94 K, 30000 kPa	1122.31
362.95 K, 40000 kPa	1158.16
362.95 K, 50000 kPa	1187.53
362.95 K, 60000 kPa	1212.48
362.95 K, 70010 kPa	1234.72
362.95 K, 80000 kPa	1254.07
362.96 K, 90000 kPa	1271.47
362.96 K, 99990 kPa	1287.46
